Columns and labels:
[1] = biological target: T1, human (α4)2(β2)2β3 nAChRs (Homo sapiens, UniProt P17787+P43681+Q05901); assay: FLEXstation membrane potential assay in HEK cells stably expressing (α4)2(β2)2β3 nAChRs; type: cell-based; settings: ±SEM
T1 construct: expressed in transfected cells
Description: Human embryonic kidney (HEK) cell lines stably expressing human (α4)2(β2)2β2/α4 (α4β2*) nAChRs, (α4)2(β2)2α5 nAChRs, (α4)2(β2)2β3 nAChRs, (α3)2(β4)2α3/β4 (α3β4*) nAChRs, (α3)2(β2)2α3/β2 (α3β2*) nAChRs, (α3)2(β4)2α5 nAChRs, or (α3)2(β2)2α5 nAChRs were maintained as described previously ([Wang et al., 2015]; [Kuryatov et al., 2005]; [Caligiuri et al., 2022]). The FLEXstation bench top scanning fluorometer from Molecular Devices was used to assay nAChR function in these cells, according to published protocols ([Wang et al., 2015]; [Kuryatov et al., 2005]). The membrane potential kit (Molecular Devices) was used according to the manufacturer’s protocols. Serial dilutions of SR9883 were manually added to the assay plate 15 min prior to recording. […] Compound dilutions were prepared in V-shaped 96-well plates (Fisher Scientific Co.) and added to cell culture wells at a rate of 20 μL s^−1 during recording. Cells were incubated at 29°C for 6–20 h prior to assays to upregulate nAChRs ([Wang et al., 2015]; [Kuryatov et al., 2005]). Data points were averaged from 3 to 4 responses from separate wells. Potency and efficacy were calculated using the Hill equation as described previously ([Wang et al., 2015]).
Concentration-response curves of SR9883 actions in nAChR-expressing HEK cells and oocytes were fitted to the Hill equation using a nonlinear least squares curve fit method and efficacy and potency values were calculated as previously described ([Wang et al., 2015]). Plasma and brain levels of SR9983 after oral administration were compared using a two-tailed paired t test. […] For the ICSS threshold experiment, percentages of baseline reward threshold scores were calculated by expressing the absolute threshold scores as a percentage of the scores obtained during baseline. The baseline values were the mean thresholds on the three sessions prior to drug injections. Response latency data were analyzed in the same manner as the threshold data. […] Effects of SR9883 on responding for food pellets in rats was analyzed by a two-tailed paired t test. […]

[2] = test system: Chrna5^+/+ and Chrna5^−/− mice; assay: Open-field locomotor activity, SR9883 alone or with nicotine; type: in vivo; settings: for Cumulative distance traveled during 60 min session: SR9883 5 or 10 mg kg^−1 IP
Method: Locomotor activity was assessed in an open-field apparatus (40 cm × 40 cm; Omnitech Electronics Inc.) under low illumination (~30 radiometric lux). Mice were habituated to the apparatus for 60 min on the day before treatments commenced. On test days, mice received a total of two systemic injections. First, mice were injected intraperitoneally with SR9883 (0, 5, 10 mg kg^−1) and returned to their home cages. […] Mice were then placed in the center of the apparatus and the total distance they traveled was recorded for 60 min (Fusion software, Omnitech Electronics Inc.). Concentration-response curves of SR9883 actions in nAChR-expressing HEK cells and oocytes were fitted to the Hill equation using a nonlinear least squares curve fit method and efficacy and potency values were calculated as previously described ([Wang et al., 2015]). Plasma and brain levels of SR9983 after oral administration were compared using a two-tailed paired t test. […] For the ICSS threshold experiment, percentages of baseline reward threshold scores were calculated by expressing the absolute threshold scores as a percentage of the scores obtained during baseline. The baseline values were the mean thresholds on the three sessions prior to drug injections. Response latency data were analyzed in the same manner as the threshold data. […] Effects of SR9883 on responding for food pellets in rats was analyzed by a two-tailed paired t test. […] Significant main or interaction effects in ANOVAs were followed by Bonferroni or Newman–Keuls post-hoc tests as appropriate. All statistical analyses were performed using GraphPad Prism software with α set to 0.05.

T1 sequence (P43681 29-627 limits assumed): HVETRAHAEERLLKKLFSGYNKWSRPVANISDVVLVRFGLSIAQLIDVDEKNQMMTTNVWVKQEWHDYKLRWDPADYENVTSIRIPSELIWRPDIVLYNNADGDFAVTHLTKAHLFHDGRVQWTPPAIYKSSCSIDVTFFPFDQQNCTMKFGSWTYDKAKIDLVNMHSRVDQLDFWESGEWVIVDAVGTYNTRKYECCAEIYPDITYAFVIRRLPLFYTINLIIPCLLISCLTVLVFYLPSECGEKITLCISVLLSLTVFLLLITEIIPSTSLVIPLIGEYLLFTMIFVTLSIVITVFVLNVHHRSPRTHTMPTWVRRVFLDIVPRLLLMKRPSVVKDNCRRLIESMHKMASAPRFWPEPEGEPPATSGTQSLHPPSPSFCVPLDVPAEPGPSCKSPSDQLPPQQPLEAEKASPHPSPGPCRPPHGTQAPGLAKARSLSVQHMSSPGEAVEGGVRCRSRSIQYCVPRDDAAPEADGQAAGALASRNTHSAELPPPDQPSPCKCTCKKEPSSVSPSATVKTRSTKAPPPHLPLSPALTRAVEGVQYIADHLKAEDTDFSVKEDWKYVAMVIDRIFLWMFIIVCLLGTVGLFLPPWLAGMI
T1 sequence (P17787 26-502): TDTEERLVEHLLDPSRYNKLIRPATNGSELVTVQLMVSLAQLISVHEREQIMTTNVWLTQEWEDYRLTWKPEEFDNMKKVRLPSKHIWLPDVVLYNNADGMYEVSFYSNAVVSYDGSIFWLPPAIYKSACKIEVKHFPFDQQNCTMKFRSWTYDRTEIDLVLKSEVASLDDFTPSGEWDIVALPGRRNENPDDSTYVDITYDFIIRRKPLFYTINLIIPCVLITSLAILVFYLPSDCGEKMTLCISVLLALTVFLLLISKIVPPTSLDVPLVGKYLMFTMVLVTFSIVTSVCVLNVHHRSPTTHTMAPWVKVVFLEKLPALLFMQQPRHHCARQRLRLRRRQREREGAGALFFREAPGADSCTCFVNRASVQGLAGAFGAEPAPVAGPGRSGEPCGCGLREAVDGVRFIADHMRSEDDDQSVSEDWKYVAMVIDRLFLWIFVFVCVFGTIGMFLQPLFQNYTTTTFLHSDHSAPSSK
T1 sequence (Q05901 25-458 limits assumed): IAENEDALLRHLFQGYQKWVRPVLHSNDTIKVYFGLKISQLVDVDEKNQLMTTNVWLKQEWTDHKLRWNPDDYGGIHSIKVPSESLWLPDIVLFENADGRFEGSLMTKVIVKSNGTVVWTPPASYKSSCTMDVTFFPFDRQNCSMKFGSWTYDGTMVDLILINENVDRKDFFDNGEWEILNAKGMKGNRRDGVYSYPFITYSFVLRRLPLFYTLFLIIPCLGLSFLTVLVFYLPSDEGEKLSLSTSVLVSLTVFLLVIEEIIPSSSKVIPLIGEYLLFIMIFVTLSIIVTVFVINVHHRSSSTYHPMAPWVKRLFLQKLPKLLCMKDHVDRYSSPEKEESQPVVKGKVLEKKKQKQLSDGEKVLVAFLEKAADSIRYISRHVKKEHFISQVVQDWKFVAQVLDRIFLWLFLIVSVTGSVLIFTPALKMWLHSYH

SMILES: N#Cc1cccc(-n2nnc(-c3cccnc3)n2)c1 [SR9883, 3-(5-(pyridin-3-yl)-2H-tetrazol-2-yl)benzonitrile]
- EC50 ([1]; SR9883 0.0005–10 μM on response to EC20-30 nicotine, HEK cells): 224 ± 149 nM
- nHill ([1]; SR9883 0.0005–10 μM on response to EC20-30 nicotine): 0.8567 ± 0.3792
- Efficacy ([1]; response to EC20-30 nicotine with SR9883 relative to nicotine alone): 96.44 ± 15.93%
- Locomotor activity (total distance traveled) vs vehicle ([2]; SR9883 5 mg kg^−1, nicotine-injected Chrna5^+/+ and Chrna5^−/− mice, p = 0.0002): reduced
- Locomotor activity (total distance traveled) vs vehicle ([2]; SR9883 10 mg kg^−1, nicotine-injected Chrna5^+/+ and Chrna5^−/− mice, p = 0.0049): reduced
- Cumulative distance traveled during 60 min session ([2]; nicotine (0.25 mg kg^−1 SC)-injected Chrna5^+/+ mice, Dose x Time p = 0.0047): decreased
- Cumulative distance traveled during 60 min session ([2]; nicotine (0.25 mg kg^−1 SC)-injected Chrna5^−/− mice, Dose x Time p = 0.0946, not significant): tended to be decreased
- Cumulative distance traveled during 60 min session ([2]; saline-injected Chrna5^+/+ mice): unchanged
- Cumulative distance traveled during 60 min session ([2]; saline-injected Chrna5^−/− mice): unchanged

From PMC11428108 (Frontiers in Molecular Neuroscience, 2024)
